Laboratory results as given in patent US10428082B2, “Triazole derivatives of melampomagnolide B and methods of use thereof” (BioVentures, LLC, priority 2016, dated 2019).
Where two headings read alike, the source gives them in different places.

How the values were obtained:
M9 ENL1 cell line = test: Anti-leukemic activity, Annexin V/7-AAD flow cytometry; assay type: cell-based
Description: (§1) The newly synthesized triazole derivatives of melampomagnolide B were screened for anti-leukemic activity against M9 ENL1 and primary AML cell lines; the latter were obtained with informed consent from human patients. Evaluations were performed after 24 h of drug exposure using flow cytometric analysis by labeling with Annexin V and 7-aminoactinomycin D (7-AAD) to delineate apoptotic cell populations. In all experiments PTL was included as a reference control.

[1] = test system: primary AML cell line AML2; test: as above; assay type: cell-based, human; conditions: 24 h of drug exposure, read-out: AML#2 (EC50)
Description: as §1

[2] = test system: primary AML cell line AML1; test: as above; assay type: cell-based, human; conditions: 24 h of drug exposure, read-out: AML#1 (EC50)
Description: as §1

Water solubility = assay type: physicochemical; conditions: fumarate salt vs free base
[3] = 24 h of drug exposure, read-out: M9ENL1 (EC50)
[4] = M9-ENL1, 24 h, 24 h of drug exposure, read-out: M9ENL1 (EC50)

Row | SMILES | EC50 (M9 ENL1 cell line; [3]) [nM] | EC50 (M9 ENL1 cell line; [4]) [nM] | EC50 ([2]; Homo sapiens, AML1, 24 h) [µM] | further results
1 | C=C1C(=O)O[C@H]2[C@H]1CC/C(Cn1cc(CCCC)nn1)=C\CC[C@@]1(C)O[C@@H]21 [JVM 4-20] | 4300 | – | – | –
2 | C/C1=C\CC[C@@]2(C)O[C@@H]2[C@H]2OC(=O)[C@H](CN(C)C)[C@@H]2CC1 [DMAPT, reference compound] | 6000 | – | – | EC50 [1]: 11.3 µM; EC50 [2]: 14.7 µM
3 | C=C1C(=O)O[C@H]2[C@H]1CC/C(Cn1cc(-c3ccccn3)nn1)=C\CC[C@@]1(C)O[C@@H]21 [JVM 4-47, (1aR,7aS,10aS,10bS,E)-1a-Methyl-8-methylene-5-((4-(pyridin-2-yl)-1H-1,2,3-triazol-1-yl)methyl)-2,3,6,7,7a,8,10a,10b-octahydrooxireno[2′,3′:9,10]cyclodeca[1,2-b]furan-9(1aH)-one] | – | 3200 | 7.9 | –
4 | C=C1C(=O)O[C@@H]2[C@H]3O[C@]3(C)CC/C=C(\CO)CC[C@@H]12 [MMB, Melampomagnolide B] | 16000 | – | – | EC50 [1]: 24.3 µM; EC50 [2]: 20.5 µM
5 | CN(C)CC1C(=O)O[C@H]2[C@H]1CC/C(Cn1cc(-c3cc(C(F)(F)F)cc(C(F)(F)F)c3)nn1)=C\CC[C@@]1(C)O[C@@H]21 (stereo partly drawn) [JVM 4-29C] | 1700 | – | – | water solubility compared with free base form (Water solubility): more water soluble than the free base form; EC50 [1]: 2.9 µM; EC50 [2]: 1 µM
6 | CN(C)CC1C(=O)O[C@H]2[C@H]1CC/C(Cn1cc(-c3cc(C(F)(F)F)cc(C(F)(F)F)c3)nn1)=C\CC[C@@]1(C)O[C@@H]21 (stereo partly drawn) [JVM 4-29B] | – | 1900 | 1.1 | EC50 ([1]; Homo sapiens, 24 h): 2.3 µM
7 | C=C1C(=O)O[C@H]2[C@H]1CC/C(Cn1cc(COC(=O)c3ccccc3)nn1)=C\CC[C@@]1(C)O[C@@H]21 [JVM 3-76] | 11000 | – | – | –
8 | C#Cc1cccc(-c2cn(C/C3=C/CC[C@@]4(C)O[C@H]4[C@H]4OC(=O)C(=C)[C@@H]4CC3)nn2)c1 [JVM 4-41, (1aR,7aS,10aS,10bS,E)-5-((4-(3-Ethynylphenyl)-1H-1,2,3-triazol-1-yl)methyl)-1a-methyl-8-methylene-2,3,6,7,7a,8,10a,10b-octahydrooxireno[2′,3′:9,10]cyclodeca[1,2-b]furan-9(1aH)-one] | – | 200 | – | EC50 (M9 ENL1 cell line; M9-ENL1, text value in nM, read-out: EC50 against the M9 ENL cell line): 200 nM; fold more potent than parthenolide (PTL) (M9 ENL1 cell line; M9 ENL1 cells): 26 fold
9 | C=C1C(=O)O[C@H]2[C@H]1CC/C(Cn1cc(-c3cc(F)cc(F)c3)nn1)=C\CC[C@@]1(C)O[C@@H]21 [JVM 4-48, (1aR,7aS,10aS,10bS,E)-5-((4-(3,5-Difluorophenyl)-1H-1,2,3-triazol-1-yl)methyl)-1a-methyl-8-methylene-2,3,6,7,7a,8,10a,10b-oetahydrooxireno[2′,3′:9,10]cyclodeca[1,2-b]furan-9(1aH)-one] | – | 1500 | 2.4 | –
10 | C=C1C(=O)O[C@H]2[C@H]1CC/C(Cn1cc(CCCCl)nn1)=C\CC[C@@]1(C)O[C@@H]21 [JVM 4-31] | 3800 | – | – | –
11 | C=C1C(=O)O[C@H]2[C@H]1CC/C(Cn1cc(-c3ccc(F)c(C)c3)nn1)=C\CC[C@@]1(C)O[C@@H]21 [JVM 4-27, (1aR,7aS,10aS,10bS,E)-5-((4-(4-Fluoro-3-methylphenyl)-1H-1,2,3-triazol-1-yl)methyl)-1a-methyl-8-methylene-2,3,6,7,7a,8,10a,10b-octahydrooxireno[2′,3′:9,10]cyclodeca[1,2-b]furan-9(1aH)-one] | – | 1200 | 1.3 | EC50 ([1]; Homo sapiens, 24 h): 1.2 µM
12 | C=C1C(=O)O[C@H]2[C@H]1CC/C(Cn1cc(CO)nn1)=C\CC[C@@]1(C)O[C@@H]21 [JVM 3-75] | 38000 | – | – | –
